Here are results for ten compounds from ChEMBL document CHEMBL1201862, “PubChem BioAssay data set” (2004).

Common to all, as to test: NCI anticancer screen, dose series, 48 h
The subject of test [1] is KM12.
Test [2] deals with SK-MEL-28.
Test [3] relates to NCI-H23.
The subject of test [4] is IGROV-1.
The subject of test [5] is SF-268.
The subject of test [6] is HT-29.
Test [7] concerns Malme-3M.
In test [8] the test system is BT-549.
Test [9] relates to DU-145.
Test [10] deals with ACHN.
Test [11] relates to UACC-62.
Test [12] deals with SN12C.
The subject of test [13] is K562.
For test [14], the system named is SK-OV-3.
In test [15] the test system is OVCAR-3.
For test [16], the system named is CAKI-1.
Test [17] deals with MOLT-4.
The subject of test [18] is MDA-MB-435.
Test [19] concerns MDA-MB-231.

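Cells were grown in 96-well plates and exposed to each compound for 48 hours at five concentrations; endpoints were interpolated linearly between bracketing concentrations, or set to the highest concentration if not reached. Abbreviation: GI50, concentration required for 50% inhibition of growth.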 Activity calls are given as the source filed them. Rule as the data show it: active = GI50 up to about 1.1 µM and inactive = higher. Some results are limits rather than exact numbers.

As to `Cn1cc2c3ccccc3nc-2c2ccccc21` [ISOCRYPTOLEPINE], the GI50 is 2.08 µM (inactive) in [1]; 2.38 µM (inactive) in test [2]; 1.51 µM (inactive) in test [3]; 1.63 µM (inactive) in test [4]; 2.33 µM (inactive) in [5]; 1.29 µM (inactive) in test [6]. Further, the GI50 in test [7] is 2.28 µM (inactive); in [8], 3.26 µM (inactive); in [9], 2.31 µM (inactive); in test [10], 1.71 µM (inactive); in test [11], 1.6 µM (inactive); in [12], 1.57 µM (inactive). Further, the GI50 in test [13] is 1.94 µM (inactive); in [14] it was 1.99 µM (inactive); in [15], 2.36 µM (inactive); in test [16], 2.32 µM (inactive); in [17], 0.421 µM (active); in test [18], 2.39 µM (inactive). In addition, the GI50 in [19] is 2.35 µM (inactive).

With `COC(=O)c1cc(NC(=O)Cc2c[nH]c3ccccc23)cn1C`, the GI50 in test [1] was > 100 µM (inactive); in [2], 42 µM (inactive); in test [3], > 100 µM (inactive); in test [4], 22.5 µM (inactive); in [5], 88.5 µM (inactive); in test [6], 65.9 µM (inactive). In addition, the GI50 is 57.7 µM (inactive) in [7]; 57.5 µM (inactive) in test [8]; > 100 µM (inactive) in [9]; 72.4 µM (inactive) in test [10]; 8.69 µM (inactive) in test [11]; 42.9 µM (inactive) in [12]. The GI50 in test [13] was 58.1 µM (inactive); in test [14] it was > 100 µM (inactive); in test [15], > 100 µM (inactive); in [16], > 100 µM (inactive); in test [17], 43.2 µM (inactive); in test [18], 55.8 µM (inactive). For the same compound, in test [19], the GI50 is 27.4 µM (inactive).

As for `COS(C)(=O)=O` [METHANESULFONIC ACID METHYL ESTER], the GI50 in [1], in test [2], in test [3], in test [4], in test [5] and in test [6] was > 2 µM (inactive) each time. Further, the GI50 in [7], in test [8], in test [9], in [10], in [11] and in test [12] was > 2 µM (inactive) throughout. For the same compound, the GI50 in test [13], in test [14], in test [15], in test [16], in [17] and in [18] was > 2 µM (inactive) in each case. Besides, the GI50 in test [19] was > 2 µM (inactive).

On to `COc1cc2c(c3oc4c(O)cccc4c(=O)c13)CC(C(C)(O)CCl)O2` (stereo not given), for which the GI50 in test [1] is 1.29 µM (inactive); in test [2] it was 0.968 µM (active); in [3] it was 0.512 µM (active); in test [4], 2.03 µM (inactive); in test [5], 0.0728 µM (active); in [6], 0.0476 µM (active). The GI50 in test [7] was 2.06 µM (inactive); in test [8] it was 3.85 µM (inactive); in test [9], 2.31 µM (inactive); in test [10] it was 0.114 µM (active); in [11] it was 0.728 µM (active); in [12], 0.209 µM (active). In addition, the GI50 was 0.0242 µM (active) in test [13]; 4.35 µM (inactive) in test [14]; 1.21 µM (inactive) in test [15]; 1.16 µM (inactive) in [16]; < 0.01 µM (active) in test [17]; 0.13 µM (active) in test [18]. For the same compound, in test [19], the GI50 is 1.55 µM (inactive).

On to `C[C@@H](c1ccccc1)N1CN(C(=O)OCc2ccccc2)C(CO)C1=O` (stereo not given in full), for which the GI50 is > 100 µM (inactive) in [1]; > 100 µM (inactive) in test [2]; > 100 µM (inactive) in test [3]; > 100 µM (inactive) in [4]; > 100 µM (inactive) in test [5]; 70.3 µM (inactive) in test [6]. Moreover, the GI50 in test [7], in test [8], in test [9], in [10], in test [11] and in test [12] was > 100 µM (inactive) in each case. Besides, the GI50 is 84.5 µM (inactive) in test [13]; > 100 µM (inactive) in [14]; > 100 µM (inactive) in test [15]; > 100 µM (inactive) in test [16]; > 100 µM (inactive) in [17]; > 100 µM (inactive) in test [18]. Further, the GI50 in test [19] was 87.3 µM (inactive).

In the case of `CC1=CC(=O)N(n2c(-c3ccccc3)n[nH]c2=O)C1=O`, the GI50 in test [1], in [2], in test [3], in test [4], in test [5] and in test [6] was > 100 µM (inactive) in each case. Besides, the GI50 in test [7], in test [8], in [9], in [10], in test [11] and in test [12] was > 100 µM (inactive) throughout. Further, the GI50 in test [13], in [14], in [15], in test [16], in test [17] and in [18] was > 100 µM (inactive) in each case. For the same compound, the GI50 in test [19] was > 100 µM (inactive).

In the case of `CCOC(=O)CCC1(C(=O)O[C@@H]2C[C@H](C)CC[C@H]2C(C)C)CCCCC1=O` (stereo not given in full), the GI50 in test [1] is 50.4 µM (inactive); in [2] it was 74 µM (inactive); in test [3], 74.8 µM (inactive); in test [4] it was > 100 µM (inactive); in test [5], > 100 µM (inactive); in test [6], 43.3 µM (inactive). The GI50 is > 100 µM (inactive) in [7]; > 100 µM (inactive) in [8]; > 100 µM (inactive) in test [9]; 74.8 µM (inactive) in test [10]; 94.6 µM (inactive) in test [11]; > 100 µM (inactive) in [12]. Also, the GI50 in test [13] was 28.1 µM (inactive); in [14], > 100 µM (inactive); in test [15] it was 45.8 µM (inactive); in [16], 40.7 µM (inactive); in [17] it was 29.2 µM (inactive); in test [18] it was 74.1 µM (inactive). Also, the GI50 in test [19] was > 100 µM (inactive).

Take `O=C1CCCC/C1=C(\Br)I`: the GI50 is 17.1 µM (inactive) in test [1]; 15.7 µM (inactive) in [2]; 10.1 µM (inactive) in test [3]; 9.38 µM (inactive) in [4]; 9.62 µM (inactive) in test [5]; 12.9 µM (inactive) in test [6]. Further, the GI50 in [7] is 5.5 µM (inactive); in test [8], 17.6 µM (inactive); in [9] it was 16 µM (inactive); in test [10] it was 16.1 µM (inactive); in test [11] it was 15.5 µM (inactive); in [12], 16.9 µM (inactive). The GI50 in test [13] was 2.69 µM (inactive); in test [14], 22 µM (inactive); in test [15], 18 µM (inactive); in test [16], 12.4 µM (inactive); in test [17] it was 2.11 µM (inactive); in test [18], 15.1 µM (inactive). Moreover, the GI50 in test [19] is 17.6 µM (inactive).

Turning to `O=C1C(N2CCN(c3ccccn3)CC2)=C(Cl)C(=O)c2ncccc21`, the GI50 was > 4.33 µM (inactive) in test [1]; 2.89 µM (inactive) in test [2]; 1.85 µM (inactive) in test [3]; > 7 µM (inactive) in [4]; > 6.1 µM (inactive) in test [5]; 2.88 µM (inactive) in [6]. Further, the GI50 in [7] is 1.3 µM (inactive); in test [8], > 10 µM (inactive); in [9] it was > 6.76 µM (inactive); in [10], 2.14 µM (inactive); in test [11] it was 2.54 µM (inactive); in test [12] it was 1.66 µM (inactive). Moreover, the GI50 in test [13] is 1.51 µM (inactive); in test [14], > 10 µM (inactive); in test [15], 1.89 µM (inactive); in test [16], 0.433 µM (active); in test [17] it was 1.83 µM (inactive); in [18], > 3.74 µM (inactive). The GI50 in test [19] was 3.63 µM (inactive).

As to `O=C1CSC(c2ccccc2[N+](=O)[O-])N1c1ccc(-c2ccc(-n3c(-c4ccccc4)nc4ccccc4c3=O)cc2)cc1` (stereo not given), the GI50 in test [1] is 80 µM (inactive); in [2] it was > 100 µM (inactive); in test [3] it was > 10 µM (inactive); in [4], 57.1 µM (inactive); in [5] it was 45.8 µM (inactive); in test [6], 62.2 µM (inactive). In addition, the GI50 was > 100 µM (inactive) in test [7]; > 100 µM (inactive) in [8]; > 100 µM (inactive) in test [9]; > 100 µM (inactive) in [10]; 36.6 µM (inactive) in test [11]; > 100 µM (inactive) in [12]. Besides, the GI50 in test [13] is 67.3 µM (inactive); in [14] it was > 100 µM (inactive); in test [15], > 100 µM (inactive); in [16], > 100 µM (inactive); in test [17], 43.2 µM (inactive); in test [18], > 100 µM (inactive). The GI50 in [19] was > 100 µM (inactive).
